Assay results published in article PMC4171606, “A novel copper(I) complex induces ER-stress-mediated apoptosis and sensitizes B-acute lymphoblastic leukemia cells to chemotherapeutic agents” (Oncotarget, 2014).

Legend:
[1] = system: Blast cells from B-ALL patients; experiment: MTT growth inhibition on primary cultures, 24 h; format: cell-based, human; conditions: B-acute lymphoblastic leukemia patients primary cultures
Description: CP growth inhibitory activity was measured on primary cultures derived from pediatric patients affected by B-acute lymphoblastic leukemia. […] In particular, in resting and in PHA-stimulated PBMC, and in CD19^+ cells GI50 was higher than 10 μM confirming that CP preferentially affects leukemia cells.
FIGURE 6 CP effects on B-ALL primary cultures (A) Blast cells from six B-ALL patients were incubated for 24 h with different concentrations of CP. For the sake of comparison CD19^+ cells from peripheral blood of healthy donors, and PBMC were also incubated with CP in the presence or absence of PHA. Cell viability were assayed by MTT analysis. Data are represented as mean ± S.E.M of four independent experiments. […] Cell viability was evaluated on the whole population by flow cytometry after staining the cells with Annexin-V-FITC and PI. are represented as mean ± S.E.M of 3 independent experiments. […]
The human leukemia cell lines RS 4;11, SEM, REH, RCH-ACV, MHH-CALL2, Jurkat, CCRF-CEM, HSB2, HL-60, K562, THP-1, MV4;11 were purchased from the American Type Culture Collection. […] The cytotoxic activity of CP was determined using a standard 3-[4,5-dimethylthiazol-2-yl]-2,5-diphenyltetrazodium bromide (MTT) based colorimetric assay (Sigma-Aldrich, Italy). […] After different times, cell survival was determined by the addition of an MTT solution as previously described. […]

ubiquitinated proteins = experiment: Western blot, Ubiquitin accumulation; format: cell-based, human
Description: FIGURE 3 CP treatment affects Ubiquitin Proteasome System (UPS) 26S proteasome (100 μg) semipurified from (A) SEM and (B) RS4;11 cells was incubated for 60 min at 37 °C with CP at different concentrations. Chymotrypsin (CT), trypsin (T) and peptidyl glutamyl peptide hydrolyzing (PGPH) catalytic activity were measured fluorimetrically (excitation 370, nm emission 460) by following the release of free AMC from synthetic substrates N-Suc-Leu-Leu-Val-Tyr-AMC, Boc-Gln-Ala-Arg-AMC and Z-Leu-Leu-Glu-AMC, specific for CT, T and PGPH activity, respectively. (C) Cells were incubated with CP 2.5 μM for the indicated times and then western blot analyses were performed to evaluate Ubiquitin accumulation.
In normal conditions, misfolded proteins in the ER are driven to the cytoplasm, where upon ubiquitination, are degraded by the proteasome system. […] To assess if CP worked as other proteasome inhibitors, we evaluated the accumulation of ubiquitin after 1.5, 3, and 6 h of treatment.
Cells were treated with CP and, after different times, were collected, centrifuged and washed with ice cold phosphate-buffered saline (PBS). The pellet was then resuspended in lysis buffer as described. The protein concentration in the supernatant was determined using the BCA protein assay (Pierce, Italy). […]

F[P-](F)(F)(F)(F)F.OCP(CO)CO.OCP(CO)CO.OCP(CO)CO.OCP(CO)CO.[Cu+] [CP, [Cu(thp)4][PF6]]
GI50 [1]: 2.3 µM
onset of accumulation of ubiquitinated proteins (ubiquitinated proteins; RS4;11, CP 2.5 μM): ≥ 3 h
onset of accumulation of ubiquitinated proteins (ubiquitinated proteins; SEM, CP 2.5 μM): ≥ 1.5 h
